From patent US9932354B2, “Imidazo-oxadiazole and imidazo-thiadiazole derivatives” (Ares Trading S.A., priority 2012, dated 2018)

Legend:
[1] = system: Amyloid-β peptide release (Aβ42), HEK cells overexpressing APP (HEK-APP); experiment: Amyloid-β peptide release (Aβ42) assay, AlphaLISA on supernatant of HEK-APP cells; assay type: cell-based; settings: Homo sapiens, HEK293, 24 h incubation with compound, read-out: Ab42 IC50 Ranges
Protocol: (§1) Amyloid-β Peptide Release (Aβ42 & AβTotal) Assay to Determine IC50 Values.
(§2) Compounds are dissolved in and diluted in 100% DMSO and incubated with HEK-APP cells for 24 h at 37° C. in 5% CO2. The supernatant from HEK-APP cells are mixed with antibodies: for Aβ42 detection: AlphaLISA Amyloid-β 1-42 Kit (Perkin Elmer AL203L) Anti-Amyloid β1-42-specific antibody acceptor beads, biotinylated anti-Amyloid-“β1-42” antibody and streptavidin (SA) donor beads diluted in AlphaLISA buffer (to the instructions of the supplier). For Aβ total detection: Custom Anti-Amyloid-βtotal acceptor beads (6E10 acceptor beads), biotinylated anti-Amyloid “β1-42” antibody (Perkin Elmer AL203L) and streptavidin (SA) donor beads diluted in AlphaLISA buffer (to the instructions of the supplier). After addition of supernatant to the antibody mix, the assay is incubated for 4.5 h. Amyloid-β peptide release (Aβ42 & AβTotal) is measured with a Pherastar FS (BMG) multimode reader using the alphascreen module.

[2] = system: Amyloid-β peptide release (AβTotal), HEK cells overexpressing APP (HEK-APP); experiment: Amyloid-β peptide release (AβTotal) assay, AlphaLISA on supernatant of HEK-APP cells; assay type: cell-based; settings: ratio Abtot vs Ab42, HEK-APP cells, 24 h
Protocol: as §1, §2

Compound	IC50 [1] [nM]	Abtot/Ab42 selectivity ranges [2]
Cc1nc(C)n2nc(-c3ccc(C(=O)NCc4cccc5ccccc45)cc3)oc12 [Example 22, 4-(5,7-Dimethyl-imidazo[5,1-b][1,2,4]oxadiazol-2-yl)-N-naphthalen-1-ylmethyl-benzamide]	500 to 1000	c (c: 50 fold > selectivity ≥ 10 fold)
Cc1ncc2sc(C(=O)N(C)CCc3ccccc3)nn12 [Example 97, 5-Methyl-imidazo[5,1-b][1,3,4]thiadiazole-2-carboxylic acid methyl-phenethyl-amide]	500 to 1000	d (d: 10 fold > selectivity)
Cc1ncc2sc(C(=O)N3CCCC(c4ccc(F)cc4)C3)nn12 (centres unmarked) [Example 109, [3-(4-Fluoro-phenyl)-piperidin-1-yl]-(5-methyl-imidazo[5,1-b][1,3,4]thiadiazol-2-yl)-methanone]	1000 to 2200	d (d: 10 fold > selectivity)
Cc1ncc2oc(-c3ccc(NC(=O)Cc4ccc(Cl)cc4Cl)cn3)nn12 [Example 82]	1000 to 2200	c (c: 50 fold > selectivity ≥ 10 fold)
Cc1ncc2oc(-c3ccc(NC(=O)Cc4ccc(Cl)c(C(F)(F)F)c4)cc3)nn12 [Example 4]	1000 to 2200	c (c: 50 fold > selectivity ≥ 10 fold)
CCOc1ccc(CC(=O)Nc2ccc(-c3nn4c(C)ncc4o3)c(OC)c2)cc1 [Example 35, 2-(4-ethoxyphenyl)-N-(3-methoxy-4-(5-methylimidazo [5,1-b][1,3,4]oxadiazol-2-yl)phenyl)acetamide]	500 to 1000	b (b: 100 fold > selectivity ≥ 50 fold)
CCc1ncc2oc(-c3ccc(C(=O)NCc4cccc5ccccc45)cc3)nn12 [Example 21]	1000 to 2200	c (c: 50 fold > selectivity ≥ 10 fold)
Cc1ncc2oc(-c3ccc(NC(=O)Nc4ccccc4C(F)(F)F)cc3)nn12 [Example 58, 1-[4-(5-Methyl-imidazo[5,1-b][1,2,4]oxadiazol-2-yl)-phenyl]-3-(2-trifluoromethyl-phenyl)-urea]	500 to 1000	d (d: 10 fold > selectivity)
Cc1ncc2oc(-c3ccc(NC(=O)Cc4ccccc4OC(F)(F)F)cn3)nn12 [Example 81, N-[6-(5-Methyl-imidazo[5,1-b][1,2,4]oxadiazol-2-yl)-pyridin-3-yl]-2-(2-trifluoromethoxy-phenyl)-acetamide]	1000 to 2200	c (c: 50 fold > selectivity ≥ 10 fold)
Cc1ncc2oc(-c3ccc(NC(=O)Cc4ccccc4C(F)(F)F)cc3)nn12 [Example 1, N-[4-(5-Methyl-imidazo[5,1-b][1,2,4]oxadiazol-2-yl)-phenyl]-2-(2-trifluoromethyl-phenyl)-acetamide]	500 to 1000	b (b: 100 fold > selectivity ≥ 50 fold)
CCOc1ccccc1C(C)NC(=O)c1nn2c(C)ncc2s1 (centres unmarked) [Example 90, 5-Methyl-imidazo[5,1-b][1,3,4]thiadiazole-2-carboxylic acid [1-(2-ethoxy-phenyl)-ethyl]-amide]	500 to 1000	d (d: 10 fold > selectivity)
COc1c(F)ccc(CC(=O)Nc2ccc(-c3nn4c(C)ncc4o3)cc2)c1F [Example 68, 2-(2,4-difluoro-3-methoxyphenyl)-N-(4-(5-methylimidazo[5,1-b][1,3,4]oxadiazol-2-yl)phenyl)acetamide]	500 to 1000	b (b: 100 fold > selectivity ≥ 50 fold)
CCOc1ccccc1CNC(=O)c1nn2c(C)ncc2s1 [Example 96, 5-Methyl-imidazo[5,1-b][1,3,4]thiadiazole-2-carboxylic acid 2-ethoxy-benzylamide]	500 to 1000	d (d: 10 fold > selectivity)
Cc1cc(-c2nn3c(C)ncc3o2)ccc1NC(=O)Cc1cccc(Cl)c1 [Example 43, 2-(3-chlorophenyl)-N-(2-methyl-4-(5-methylimidazo[5,1-b][1,3,4]oxadiazol-2-yl)phenyl)acetamide]	1000 to 2200	c (c: 50 fold > selectivity ≥ 10 fold)
Cc1cc(-c2nn3c(C)ncc3o2)ccc1NC(=O)Cc1ccc(Cl)cc1 [Example 44, 2-(4-chlorophenyl)-N-(2-methyl-4-(5-methylimidazo[5,1-b][1,3,4]oxadiazol-2-yl)phenyl)acetamide]	500 to 1000	b (b: 100 fold > selectivity ≥ 50 fold)
Cc1ncc2sc(C(=O)N3CCCC[C@H]3c3ccccc3)nn12 [Example 120, (5-Methyl-imidazo[5,1-b][1,3,4]thiadiazol-2-yl)-((S)-2-phenyl-piperidin-1-yl)-methanone]	500 to 1000	d (d: 10 fold > selectivity)

Compound	IC50 [1] [nM]	Abtot/Ab42 selectivity ranges [2]
Cc1ncc2oc(-c3ccc(NC(=O)Cc4cccc(C(F)(F)F)c4)cn3)nn12 [Example 14, N-[6-(5-Methyl-imidazo[5,1-b][1,2,4]oxadiazol-2-yl)-pyridin-3-yl]-2-(3-trifluoromethyl-phenyl)-acetamide]	1000 to 2200	c (c: 50 fold > selectivity ≥ 10 fold)
Cc1ncc2oc(-c3ccc(NC(=O)Cc4cccc(OCc5ccccc5)c4)cc3)nn12 [Example 70, 2-(3-(benzyloxy)phenyl)-N-(4-(5-methylimidazo[5,1-b][1,3,4]oxadiazol-2-yl)phenyl)acetamide]	1000 to 2200	c (c: 50 fold > selectivity ≥ 10 fold)
Cc1ncc2oc(-c3ccc(Nc4ccn(Cc5ccc(Cl)c(Cl)c5)n4)cc3)nn12 [Example 30, [1-(3,4-Dichloro-benzyl)-1H-pyrazol-3-yl]-[4-(5-methyl-imidazo[5,1-b][1,2,4]oxadiazol-2-yl)-phenyl]-amine]	1000 to 2200	c (c: 50 fold > selectivity ≥ 10 fold)
Cc1ncc2sc(C(=O)N(C)Cc3ccccc3)nn12 [Example 98, 5-Methyl-imidazo[5,1-b][1,3,4]thiadiazole-2-carboxylic acid benzyl-methyl-amide]	1000 to 2200	d (d: 10 fold > selectivity)
Cc1ncc2oc(-c3ccc(C(=O)NCc4cccc(Cl)c4Cl)cc3)nn12 [Example 87, N-(2,3-dichlorobenzyl)-4-(5-methylimidazo[5,1-b][1,3,4]oxadiazol-2-yl)benzamide]	1000 to 2200	c (c: 50 fold > selectivity ≥ 10 fold)
Cc1ncc2oc(-c3ccc(NC(=O)Cc4ccc(OC(F)(F)F)cc4)cc3)nn12 [Example 6, N-[4-(5-Methyl-imidazo[5,1-b][1,2,4]oxadiazol-2-yl)-phenyl]-2-(4-trifluoromethoxy-phenyl)-acetamide]	500 to 1000	c (c: 50 fold > selectivity ≥ 10 fold)
CCN(Cc1ccccc1)C(=O)c1nn2c(C)ncc2s1 [Example 99, 5-Methyl-imidazo[5,1-b][1,3,4]thiadiazole-2-carboxylic acid benzyl-ethyl-amide]	1000 to 2200	d (d: 10 fold > selectivity)
Cc1ncc2sc(C(=O)NCc3cccc4ccccc34)nn12 [Example 105, 5-methyl-N-(naphthalen-1-ylmethyl)imidazo[5,1-b][1,3,4]thiadiazole-2-carboxamide]	500 to 1000	d (d: 10 fold > selectivity)
Cc1ncc2sc(C(=O)N(Cc3ccccc3)CC(C)C)nn12 [Example 89, 5-Methyl-imidazo[5,1-b][1,3,4]thiadiazole-2-carboxylic acid benzyl-isobutyl-amide]	100 to 500	d (d: 10 fold > selectivity)
Cc1ncc2sc(C(=O)N3CCCC3c3cccc(Br)c3)nn12 (centres unmarked) [Example 123, [2-(3-Bromo-phenyl)-pyrrolidin-1-yl]-(5-methyl-imidazo[5,1-b][1,3,4]thiadiazol-2-yl)-methanone]	1000 to 2200	d (d: 10 fold > selectivity)
Cc1ncc2sc(-c3nnc(NCc4ccccc4F)o3)nn12 [Example 104, (2-Fluoro-benzyl)-[5-(5-methyl-imidazo[5,1-b][1,3,4]thiadiazol-2-yl)-[1,3,4]oxadiazol-2-yl]-amine]	1000 to 2200	d (d: 10 fold > selectivity)
Cc1ncc2oc(-c3ccc(C(=O)NCc4cccc5ccccc45)cc3)nn12 [Example 86, 4-(5-methylimidazo[5,1-b][1,3,4]oxadiazol-2-yl)-N-(naphthalen-1-ylmethyl)benzamide]	500 to 1000	b (b: 100 fold > selectivity ≥ 50 fold)
Cc1ncc2oc(-c3ccc(NC(=O)c4ccc(F)c(OC(F)(F)F)c4)cn3)nn12 [Example 16, 4-Fluoro-N-[6-(5-methyl-imidazo[5,1-b][1,2,4]oxadiazol-2-yl)-pyridin-3-yl]-3-trifluoromethoxy-benzamide]	1000 to 2200	d (d: 10 fold > selectivity)
Cc1cccc(CC(=O)Nc2ccc(-c3nn4c(C)ncc4o3)cc2)c1 [Example 2, N-[4-(5-Methyl-imidazo[5,1-b][1,2,4]oxadiazol-2-yl)-phenyl]-2-m-tolyl-acetamide]	1000 to 2200	c (c: 50 fold > selectivity ≥ 10 fold)
Cc1ncc2sc(C(=O)NCCc3c[nH]c4ccccc34)nn12 [Example 94, 5-Methyl-imidazo[5,1-b][1,3,4]thiadiazole-2-carboxylic acid [2-(1H-indol-3-yl)-ethyl]-amide]	500 to 1000	d (d: 10 fold > selectivity)
